Assay results: PubChem BioAssay (NCI)
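Dose response: 5 concentrations. Exposure: 48 h. Format: 96-well plates. Endpoint: linear interpolation; highest concentration if not reached. Here, GI50 denotes the concentration required for 50% inhibition of growth. TGI: concentration producing complete growth inhibition.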

Key:
Test in all cases: DTP human tumour cell line panel, 48 h
K-562 leukemia = system: K-562 leukemia
T-47D breast = system: T-47D breast
NCI-H522 lung = system: NCI-H522 lung
HS 578T breast = system: HS 578T breast
NCI-H460 lung = system: NCI-H460 lung
CCRF-CEM leukemia = system: CCRF-CEM leukemia
CAKI-1 renal = system: CAKI-1 renal
MDA-MB-435 = system: MDA-MB-435
RPMI-8226 leukemia = system: RPMI-8226 leukemia
SNB-75 CNS = system: SNB-75 CNS
TK-10 renal = system: TK-10 renal
HCC-2998 colon = system: HCC-2998 colon
SF-295 CNS = system: SF-295 CNS
SN12C renal = system: SN12C renal
OVCAR-5 ovarian = system: OVCAR-5 ovarian
EKVX NSCLC = system: EKVX NSCLC
786-0 renal = system: 786-0 renal
MCF7 breast = system: MCF7 breast
A498 renal = system: A498 renal
DU-145 prostate = system: DU-145 prostate
HOP-62 NSCLC = system: HOP-62 NSCLC
UO-31 renal = system: UO-31 renal
OVCAR-3 ovarian = system: OVCAR-3 ovarian
SK-MEL-2 melanoma = system: SK-MEL-2 melanoma
SR leukemia = system: SR leukemia
A549 NSCLC = system: A549 NSCLC
MDA-MB-231 breast = system: MDA-MB-231 breast
SF-268 CNS = system: SF-268 CNS
MOLT-4 leukemia = system: MOLT-4 leukemia
BT-549 breast = system: BT-549 breast
IGROV1 ovarian = system: IGROV1 ovarian
SK-MEL-28 melanoma = system: SK-MEL-28 melanoma
COLO 205 colon = system: COLO 205 colon
OVCAR-8 ovarian = system: OVCAR-8 ovarian
NCI-H23 lung = system: NCI-H23 lung
U251 CNS = system: U251 CNS
UACC-62 melanoma = system: UACC-62 melanoma
NCI-H226 lung = system: NCI-H226 lung
HCT-15 colon = system: HCT-15 colon
RXF 393 renal = system: RXF 393 renal
HCT-116 colon = system: HCT-116 colon
KM12 colon = system: KM12 colon
MALME-3M melanoma = system: MALME-3M melanoma
SK-MEL-5 melanoma = system: SK-MEL-5 melanoma
SF-539 CNS = system: SF-539 CNS
SW-620 colon = system: SW-620 colon
UACC-257 melanoma = system: UACC-257 melanoma
HOP-92 NSCLC = system: HOP-92 NSCLC
M14 melanoma = system: M14 melanoma
ACHN renal = system: ACHN renal
NCI/ADR-RES ovarian = system: NCI/ADR-RES ovarian
SNB-19 CNS = system: SNB-19 CNS
PC-3 prostate = system: PC-3 prostate
SK-OV-3 ovarian = system: SK-OV-3 ovarian
HT29 colon = system: HT29 colon

COc1cccc(/C(COc2ccc3c(c2)oc(=O)c2ccccc23)=N\O)c1
GI50 (K-562 leukemia): 13.6 µM
TGI (K-562 leukemia): 85.3 µM
GI50 (T-47D breast): 29.4 µM
TGI (T-47D breast): > 100 µM
GI50 (NCI-H522 lung): 20.6 µM
TGI (NCI-H522 lung): 61.3 µM
GI50 (HS 578T breast): 67.1 µM
TGI (HS 578T breast): > 100 µM
GI50 (NCI-H460 lung): > 100 µM
TGI (NCI-H460 lung): > 100 µM
GI50 (CCRF-CEM leukemia): 23.2 µM
TGI (CCRF-CEM leukemia): > 100 µM
GI50 (CAKI-1 renal): 26.1 µM
TGI (CAKI-1 renal): 77.2 µM
GI50 (MDA-MB-435): 19.9 µM
TGI (MDA-MB-435): 52.8 µM
GI50 (RPMI-8226 leukemia): 30.3 µM
TGI (RPMI-8226 leukemia): > 100 µM
GI50 (SNB-75 CNS): 25.7 µM
TGI (SNB-75 CNS): 76.7 µM
GI50 (TK-10 renal): 33.7 µM
TGI (TK-10 renal): > 100 µM
GI50 (HCC-2998 colon): 44.1 µM
TGI (HCC-2998 colon): > 100 µM
GI50 (SF-295 CNS): 33.3 µM
TGI (SF-295 CNS): > 100 µM
GI50 (SN12C renal): 32.8 µM
TGI (SN12C renal): 96 µM
GI50 (OVCAR-5 ovarian): > 100 µM
TGI (OVCAR-5 ovarian): > 100 µM
GI50 (EKVX NSCLC): 12.5 µM
TGI (EKVX NSCLC): 66.2 µM
GI50 (786-0 renal): 16.9 µM
TGI (786-0 renal): 58 µM
GI50 (MCF7 breast): > 100 µM
TGI (MCF7 breast): > 100 µM
GI50 (A498 renal): 30.5 µM
TGI (A498 renal): 81.8 µM
GI50 (DU-145 prostate): 16.9 µM
TGI (DU-145 prostate): 60.7 µM
GI50 (HOP-62 NSCLC): 37 µM
TGI (HOP-62 NSCLC): > 100 µM
GI50 (UO-31 renal): 17.3 µM
TGI (UO-31 renal): 34.3 µM
GI50 (OVCAR-3 ovarian): 45 µM
TGI (OVCAR-3 ovarian): > 100 µM
GI50 (SK-MEL-2 melanoma): 28.6 µM
TGI (SK-MEL-2 melanoma): 69 µM
GI50 (SR leukemia): 10.3 µM
TGI (SR leukemia): > 100 µM
GI50 (A549 NSCLC): 16.9 µM
TGI (A549 NSCLC): 51.1 µM
GI50 (MDA-MB-231 breast): 22.2 µM
TGI (MDA-MB-231 breast): 64.5 µM
GI50 (SF-268 CNS): > 100 µM
TGI (SF-268 CNS): > 100 µM
GI50 (MOLT-4 leukemia): 6.63 µM
TGI (MOLT-4 leukemia): 35 µM
GI50 (BT-549 breast): 23 µM
TGI (BT-549 breast): 57.9 µM
GI50 (IGROV1 ovarian): 28.4 µM
TGI (IGROV1 ovarian): 58.5 µM
GI50 (SK-MEL-28 melanoma): 84.7 µM
TGI (SK-MEL-28 melanoma): > 100 µM
GI50 (COLO 205 colon): 25.8 µM
TGI (COLO 205 colon): 75.9 µM
GI50 (OVCAR-8 ovarian): 20.8 µM
TGI (OVCAR-8 ovarian): 54 µM
GI50 (NCI-H23 lung): 33.6 µM
TGI (NCI-H23 lung): > 100 µM
GI50 (U251 CNS): 34.4 µM
TGI (U251 CNS): > 100 µM
GI50 (UACC-62 melanoma): 24.8 µM
TGI (UACC-62 melanoma): 82.1 µM
GI50 (NCI-H226 lung): 27.7 µM
TGI (NCI-H226 lung): 62 µM
GI50 (HCT-15 colon): 37.2 µM
TGI (HCT-15 colon): > 100 µM
GI50 (RXF 393 renal): 18.4 µM
TGI (RXF 393 renal): 38.3 µM
GI50 (HCT-116 colon): 13.2 µM
TGI (HCT-116 colon): 33.4 µM
GI50 (KM12 colon): 15.1 µM
TGI (KM12 colon): 39.1 µM
GI50 (MALME-3M melanoma): 33 µM
TGI (MALME-3M melanoma): 90.1 µM
GI50 (SK-MEL-5 melanoma): 17.1 µM
TGI (SK-MEL-5 melanoma): 35.7 µM
GI50 (SF-539 CNS): 18.3 µM
TGI (SF-539 CNS): 44.3 µM
GI50 (SW-620 colon): 42.5 µM
TGI (SW-620 colon): > 100 µM
GI50 (UACC-257 melanoma): 25 µM
TGI (UACC-257 melanoma): 61.1 µM
GI50 (HOP-92 NSCLC): 71.8 µM
TGI (HOP-92 NSCLC): > 100 µM
GI50 (M14 melanoma): 32 µM
TGI (M14 melanoma): > 100 µM
GI50 (ACHN renal): 26.7 µM
TGI (ACHN renal): > 100 µM
GI50 (NCI/ADR-RES ovarian): 20 µM
TGI (NCI/ADR-RES ovarian): > 100 µM
GI50 (SNB-19 CNS): 52 µM
TGI (SNB-19 CNS): > 100 µM
GI50 (PC-3 prostate): 29.5 µM
TGI (PC-3 prostate): > 100 µM
GI50 (SK-OV-3 ovarian): > 100 µM
TGI (SK-OV-3 ovarian): > 100 µM
GI50 (HT29 colon): 29.6 µM
TGI (HT29 colon): > 100 µM
